# Legend:
# Details in all cases: synthetic library passage 3, intravenous, relative to wild-type AAV9
# [1] = test system: brain, spinal cord, and DRG of the NHPs; assay: NGS fold enrichment of synthetic library (passage 3) in NHPs, first cross-species screen; format: in vivo, cynomolgus macaques (Macaca fascicularis)
# Procedure, shortened: (§1)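 Synthetic capsid library (passage 3) was given intravenously […] to NHPs aged 2-4 years and to BALB/c and C57Bl/6 mice (n=3 each, 6-8 weeks). After about 28 days in vivo, tissue RNA was RT-PCR amplified and NGS-sequenced; values are fold enrichment per variant relative to wild-type AAV9.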
# brain [2] = assay: NGS fold enrichment of synthetic library (passage 3) in C57Bl/6 mice, first cross-species screen; format: in vivo
# Procedure, shortened: as §1
# brain [3] = assay: NGS fold enrichment of synthetic library (passage 3) in BALB/c mice, first cross-species screen; format: in vivo
# Procedure, shortened: as §1
# [4] = RNA from spinal cord of NHPs, NGS
# [5] = RNA from brain of C57Bl/6 mice, NGS
# [6] = RNA from brain of BALB/c mice, NGS
sequence,measurement,setting,value
GSGQNQQVAGLNNT,Fold enrichment over AAV9 in the brain of NHPs,"[1]; RNA from brain of NHPs, NGS",1.386 fold
same,Fold enrichment over AAV9 in the spinal cord of NHPs,[1]; [4],3.218 fold
same,Fold enrichment over AAV9 in the brain of Mice (C57Bl/6),brain [2]; [5],0.449 fold
same,Fold enrichment over AAV9 in the brain of Mice (BALB/c),brain [3]; [6],0.492 fold
GSGQNQQVAIRTST,Fold enrichment over AAV9 in the brain of NHPs,"[1]; RNA NGS, brain of NHPs",1.035 fold
same,Fold enrichment over AAV9 in the spinal cord of NHPs,"[1]; RNA NGS, spinal cord of NHPs",2.447 fold
same,Fold enrichment over AAV9 in the brain of Mice (C57Bl/6),"brain [2]; RNA NGS, brain of C57Bl/6 mice",0.963 fold
same,Fold enrichment over AAV9 in the brain of Mice (BALB/c),"brain [3]; RNA NGS, brain of BALB/c mice",0.370 fold
GSGQNQQVGGKTVT,Fold enrichment over AAV9 in the brain of NHPs,"[1]; RNA NGS, brain of NHPs",1.032 fold
same,Fold enrichment over AAV9 in the spinal cord of NHPs,"[1]; RNA NGS, spinal cord of NHPs",6.195 fold
same,Fold enrichment over AAV9 in the brain of Mice (C57Bl/6),"brain [2]; RNA NGS, brain of C57Bl/6 mice",1.094 fold
same,Fold enrichment over AAV9 in the brain of Mice (BALB/c),"brain [3]; RNA NGS, brain of BALB/c mice",0.821 fold
GSGQNQQVGSTVRT,Fold enrichment over AAV9 in the brain of NHPs,"[1]; RNA NGS, brain of NHPs",1.124 fold
same,Fold enrichment over AAV9 in the spinal cord of NHPs,"[1]; RNA NGS, spinal cord of NHPs",2.040 fold
same,Fold enrichment over AAV9 in the brain of Mice (C57Bl/6),"brain [2]; RNA NGS, brain of C57Bl/6 mice",0.918 fold
same,Fold enrichment over AAV9 in the brain of Mice (BALB/c),"brain [3]; RNA NGS, brain of BALB/c mice",0.614 fold
GSGQNQQVHLSTGT,Fold enrichment over AAV9 in the brain of NHPs,"[1]; RNA NGS, brain of NHPs",1.811 fold
same,Fold enrichment over AAV9 in the spinal cord of NHPs,"[1]; RNA NGS, spinal cord of NHPs",0.266 fold
same,Fold enrichment over AAV9 in the brain of Mice (C57Bl/6),"brain [2]; RNA NGS, brain of C57Bl/6 mice",1.011 fold
same,Fold enrichment over AAV9 in the brain of Mice (BALB/c),"brain [3]; RNA NGS, brain of BALB/c mice",0.455 fold
GSGQNQQVIPNSKT,Fold enrichment over AAV9 in the brain of NHPs,"[1]; RNA NGS, brain of NHPs",1.548 fold
same,Fold enrichment over AAV9 in the spinal cord of NHPs,"[1]; RNA NGS, spinal cord of NHPs",1.036 fold
same,Fold enrichment over AAV9 in the brain of Mice (C57Bl/6),"brain [2]; RNA NGS, brain of C57Bl/6 mice",0.844 fold
same,Fold enrichment over AAV9 in the brain of Mice (BALB/c),"brain [3]; RNA NGS, brain of BALB/c mice",0.376 fold
GSGQNQQVIQGSNT,Fold enrichment over AAV9 in the brain of NHPs,"[1]; RNA NGS, brain of NHPs",2.521 fold
same,Fold enrichment over AAV9 in the spinal cord of NHPs,"[1]; RNA NGS, spinal cord of NHPs",8.778 fold
same,Fold enrichment over AAV9 in the brain of Mice (C57Bl/6),"brain [2]; RNA NGS, brain of C57Bl/6 mice",0.935 fold
same,Fold enrichment over AAV9 in the brain of Mice (BALB/c),"brain [3]; RNA NGS, brain of BALB/c mice",0.810 fold
GSGQNQQVLTTART,Fold enrichment over AAV9 in the brain of NHPs,"[1]; RNA NGS, brain of NHPs",1.434 fold
same,Fold enrichment over AAV9 in the spinal cord of NHPs,"[1]; RNA NGS, spinal cord of NHPs",4.142 fold
same,Fold enrichment over AAV9 in the brain of Mice (C57Bl/6),"brain [2]; RNA NGS, brain of C57Bl/6 mice",1.071 fold
same,Fold enrichment over AAV9 in the brain of Mice (BALB/c),"brain [3]; RNA NGS, brain of BALB/c mice",0.948 fold
GSGQNQQWDSRRQT,Fold enrichment over AAV9 in the brain of NHPs,"[1]; RNA from brain of NHPs, NGS",1.321 fold
same,Fold enrichment over AAV9 in the spinal cord of NHPs,[1]; [4],0.531 fold
same,Fold enrichment over AAV9 in the brain of Mice (C57Bl/6),brain [2]; [5],1.059 fold
same,Fold enrichment over AAV9 in the brain of Mice (BALB/c),brain [3]; [6],0.825 fold
GSGQNQQYAGKILT,Fold enrichment over AAV9 in the brain of NHPs,"[1]; RNA NGS, brain of NHPs",1.112 fold
same,Fold enrichment over AAV9 in the spinal cord of NHPs,"[1]; RNA NGS, spinal cord of NHPs",0.300 fold
same,Fold enrichment over AAV9 in the brain of Mice (C57Bl/6),"brain [2]; RNA NGS, brain of C57Bl/6 mice",1.078 fold
same,Fold enrichment over AAV9 in the brain of Mice (BALB/c),"brain [3]; RNA NGS, brain of BALB/c mice",0.431 fold
GSGQNQRASILVQT,Fold enrichment over AAV9 in the brain of NHPs,"[1]; RNA from brain of NHPs, NGS",1.162 fold
same,Fold enrichment over AAV9 in the spinal cord of NHPs,[1]; [4],3.632 fold
same,Fold enrichment over AAV9 in the brain of Mice (C57Bl/6),brain [2]; [5],0.531 fold
same,Fold enrichment over AAV9 in the brain of Mice (BALB/c),brain [3]; [6],0.569 fold
GSGQNQRATLSNQT,Fold enrichment over AAV9 in the brain of NHPs,"[1]; RNA from brain of NHPs, NGS",1.339 fold
same,Fold enrichment over AAV9 in the spinal cord of NHPs,[1]; [4],1.084 fold
same,Fold enrichment over AAV9 in the brain of Mice (C57Bl/6),brain [2]; [5],0.947 fold
same,Fold enrichment over AAV9 in the brain of Mice (BALB/c),brain [3]; [6],0.723 fold
GSGQNQRAVLNDQT,Fold enrichment over AAV9 in the brain of NHPs,"[1]; RNA from brain of NHPs, NGS",1.242 fold
same,Fold enrichment over AAV9 in the spinal cord of NHPs,[1]; [4],3.023 fold
same,Fold enrichment over AAV9 in the brain of Mice (C57Bl/6),brain [2]; [5],0.556 fold
same,Fold enrichment over AAV9 in the brain of Mice (BALB/c),brain [3]; [6],0.259 fold
GSGQNQRGALATQT,Fold enrichment over AAV9 in the brain of NHPs,"[1]; RNA NGS, brain of NHPs",1.722 fold
same,Fold enrichment over AAV9 in the spinal cord of NHPs,"[1]; RNA NGS, spinal cord of NHPs",1.117 fold
same,Fold enrichment over AAV9 in the brain of Mice (C57Bl/6),"brain [2]; RNA NGS, brain of C57Bl/6 mice",0.899 fold
same,Fold enrichment over AAV9 in the brain of Mice (BALB/c),"brain [3]; RNA NGS, brain of BALB/c mice",0.891 fold
GSGQNQRLHGVDQT,Fold enrichment over AAV9 in the brain of NHPs,"[1]; RNA from brain of NHPs, NGS",1.318 fold
same,Fold enrichment over AAV9 in the spinal cord of NHPs,[1]; [4],4.655 fold
same,Fold enrichment over AAV9 in the brain of Mice (C57Bl/6),brain [2]; [5],0.459 fold
same,Fold enrichment over AAV9 in the brain of Mice (BALB/c),brain [3]; [6],0.341 fold
GSGQNQRSSGGVQT,Fold enrichment over AAV9 in the brain of NHPs,"[1]; RNA NGS, brain of NHPs",1.723 fold
same,Fold enrichment over AAV9 in the spinal cord of NHPs,"[1]; RNA NGS, spinal cord of NHPs",2.056 fold
same,Fold enrichment over AAV9 in the brain of Mice (C57Bl/6),"brain [2]; RNA NGS, brain of C57Bl/6 mice",1.805 fold
same,Fold enrichment over AAV9 in the brain of Mice (BALB/c),"brain [3]; RNA NGS, brain of BALB/c mice",1.165 fold
GSGQNQRTMVATQT,Fold enrichment over AAV9 in the brain of NHPs,"[1]; RNA from brain of NHPs, NGS",1.130 fold
same,Fold enrichment over AAV9 in the spinal cord of NHPs,[1]; [4],1.122 fold
same,Fold enrichment over AAV9 in the brain of Mice (C57Bl/6),brain [2]; [5],0.649 fold
same,Fold enrichment over AAV9 in the brain of Mice (BALB/c),brain [3]; [6],0.554 fold
GSGQNQRVSNSQQT,Fold enrichment over AAV9 in the brain of NHPs,"[1]; RNA NGS, brain of NHPs",2.146 fold
same,Fold enrichment over AAV9 in the spinal cord of NHPs,"[1]; RNA NGS, spinal cord of NHPs",0.492 fold
same,Fold enrichment over AAV9 in the brain of Mice (C57Bl/6),"brain [2]; RNA NGS, brain of C57Bl/6 mice",1.086 fold
same,Fold enrichment over AAV9 in the brain of Mice (BALB/c),"brain [3]; RNA NGS, brain of BALB/c mice",0.985 fold
GSGQNQSHYPSQQT,Fold enrichment over AAV9 in the brain of NHPs,"[1]; RNA from brain of NHPs, NGS",1.228 fold
same,Fold enrichment over AAV9 in the spinal cord of NHPs,[1]; [4],4.315 fold
same,Fold enrichment over AAV9 in the brain of Mice (C57Bl/6),brain [2]; [5],0.644 fold
same,Fold enrichment over AAV9 in the brain of Mice (BALB/c),brain [3]; [6],0.402 fold
GSGQNQSQNHLQQT,Fold enrichment over AAV9 in the brain of NHPs,"[1]; RNA NGS, brain of NHPs",1.825 fold
same,Fold enrichment over AAV9 in the spinal cord of NHPs,"[1]; RNA NGS, spinal cord of NHPs",0.600 fold
same,Fold enrichment over AAV9 in the brain of Mice (C57Bl/6),"brain [2]; RNA NGS, brain of C57Bl/6 mice",1.063 fold
same,Fold enrichment over AAV9 in the brain of Mice (BALB/c),"brain [3]; RNA NGS, brain of BALB/c mice",0.772 fold

# — US20260250318A1, “COMPOSITIONS AND METHODS FOR CROSSING THE BLOOD BRAIN BARRIER” (VOYAGER THERAPEUTICS, INC., priority 2022, published 2026)
